pIC50: −log10 of the molar value. Read-outs that look alike come from different tables or passages of the source. Bridge positions count the residues as written; N and C are the ends. Square brackets hold non-standard residues; d marks the D form. Peptide text beside a SMILES is read from it. 1Nal = N[C@@H](Cc1cccc2ccccc12)C(=O)O

For test [1], the system named is thapsigargin-induced IFN-g production in human whole blood. Format: cell-based.
Test [2] has as its system thapsigargin-induced IL-2 production in human whole blood.
Where [3] appears, read: read-out: Analogue Activity (IC50) WB/IFNg.
Where [4] appears, read: read-out: Analogue Activity (IC50) WB/IL-2.

For the compound `CC[C@H](C)[C@@H]1NC(=O)[C@H](CCCCN)NC(=O)[C@@H](NC(=O)[C@H](CCCCN)NC(=O)[C@@H](NC(=O)[C@H](CC(N)=O)NC(=O)[C@@H](NC(=O)[C@@H](NC(=O)[C@@H](NC(=O)CN)C(C)C)[C@@H](C)CC)[C@@H](C)CC)C(C)C)CSSC[C@@H]2NC(=O)[C@H](CCCCN)NC(=O)CNC(=O)[C@H](Cc3ccccc3)NC(=O)[C@H](CCCNC(=N)N)NC(=O)[C@H](CCSC)NC(=O)CNC(=O)[C@H](C)NC(=O)[C@H](CCCCN)NC(=O)[C@H](CCCCN)NC(=O)[C@@H]3CSSC[C@@H](C(=O)N[C@H](C(=O)N4CCC[C@H]4C(=O)N[C@@H](CCCCN)C(=O)O)[C@@H](C)O)NC(=O)[C@H](Cc4c[nH]cn4)NC(=O)[C@H](CSSC[C@H](NC(=O)[C@H](CCC(N)=O)NC(=O)[C@H](CCCNC(=N)N)NC(=O)[C@H](CO)NC1=O)C(=O)N[C@@H](CC(C)C)C(=O)N[C@@H](CCC(=O)O)C(=O)N1CCC[C@H]1C(=O)N3)NC(=O)[C@H](CCCCN)NC(=O)[C@H](Cc1cccc3ccccc13)NC(=O)[C@H](CC(N)=O)NC(=O)[C@H](CCSC)NC2=O` [G31Nal] (H-GVIINVKCKISRQCLEPCKKAGMRFGKCMN[1Nal]KCHCTPK-OH; disulfide 8-28, 14-33, 18-35), the pIC50 in test [1] (setting [3]) is 9.33; in test [2] (setting [4]), 9.48.
The matching figures for `CC[C@H](C)[C@@H]1NC(=O)[C@H](CCCCN)NC(=O)[C@@H](NC(=O)[C@H](CCCCN)NC(=O)[C@@H](NC(=O)[C@H](CC(N)=O)NC(=O)[C@@H](NC(=O)[C@@H](NC(=O)[C@@H](NC(=O)CN)C(C)C)[C@@H](C)CC)[C@@H](C)CC)C(C)C)CSSC[C@@H]2NC(=O)[C@H](CCCCN)NC(=O)CNC(=O)[C@H](Cc3ccccc3)NC(=O)[C@H](CCCNC(=N)N)NC(=O)[C@H](CCSC)NC(=O)CNC(=O)[C@H](C)NC(=O)[C@H](CCCCN)NC(=O)[C@H](CCCCN)NC(=O)[C@@H]3CSSC[C@@H](C(=O)N[C@H](C(=O)N4CCC[C@H]4C(=O)N[C@@H](CCCCN)C(=O)O)[C@@H](C)O)NC(=O)[C@H](CCCNC(=N)N)NC(=O)[C@H](CSSC[C@H](NC(=O)[C@H](CCC(N)=O)NC(=O)[C@H](CCCNC(=N)N)NC(=O)[C@H](CO)NC1=O)C(=O)N[C@@H](CC(C)C)C(=O)N[C@@H](CCC(=O)O)C(=O)N1CCC[C@H]1C(=O)N3)NC(=O)[C@H](CCCCN)NC(=O)CNC(=O)[C@H](CC(N)=O)NC(=O)[C@H](CCSC)NC2=O` [H34R] (H-GVIINVKCKISRQCLEPCKKAGMRFGKCMNGKCRCTPK-OH; disulfide 8-28, 14-33, 18-35): 9.97 and 10.04.
Take `CC[C@H](C)[C@@H]1NC(=O)[C@H](CCCCN)NC(=O)[C@@H](NC(=O)[C@H](CCCCN)NC(=O)[C@@H](NC(=O)[C@H](CC(N)=O)NC(=O)[C@@H](NC(=O)[C@@H](NC(=O)[C@@H](NC(=O)CN)C(C)C)[C@@H](C)CC)[C@@H](C)CC)C(C)C)CSSC[C@@H]2NC(=O)[C@H](CCC(=O)O)NC(=O)CNC(=O)[C@H](Cc3ccccc3)NC(=O)[C@H](CCCNC(=N)N)NC(=O)[C@H](CCSC)NC(=O)CNC(=O)[C@H](C)NC(=O)[C@H](CCCCN)NC(=O)[C@H](CCCCN)NC(=O)[C@@H]3CSSC[C@@H](C(=O)N[C@H](C(=O)N4CCC[C@H]4C(=O)N[C@@H](CCCCN)C(=O)O)[C@@H](C)O)NC(=O)[C@H](Cc4c[nH]cn4)NC(=O)[C@H](CSSC[C@H](NC(=O)[C@H](CCC(N)=O)NC(=O)[C@H](CCCNC(=N)N)NC(=O)[C@H](CO)NC1=O)C(=O)N[C@@H](CC(C)C)C(=O)N[C@@H](CCC(=O)O)C(=O)N1CCC[C@H]1C(=O)N3)NC(=O)[C@H](CCCCN)NC(=O)CNC(=O)[C@H](CC(N)=O)NC(=O)[C@H](CCSC)NC2=O` [K27E] (H-GVIINVKCKISRQCLEPCKKAGMRFGECMNGKCHCTPK-OH; disulfide 8-28, 14-33, 18-35): the pIC50 in test [1] (setting [3]) is 8.15; in test [2] (setting [4]) it was 8.26.
The matching figures for `CC[C@H](C)[C@@H]1NC(=O)[C@H](CCCCN)NC(=O)[C@@H](NC(=O)[C@H](CCCCN)NC(=O)[C@@H](NC(=O)[C@H](CC(N)=O)NC(=O)[C@@H](NC(=O)[C@@H](NC(=O)[C@@H](NC(=O)CN)C(C)C)[C@@H](C)CC)[C@@H](C)CC)C(C)C)CSSC[C@@H]2NC(=O)[C@H](CCCCN)NC(=O)CNC(=O)[C@H](Cc3ccccc3)NC(=O)[C@H](CCCNC(=N)N)NC(=O)[C@H](CCSC)NC(=O)CNC(=O)[C@H](C)NC(=O)[C@H](CCCCN)NC(=O)[C@H](CCCCN)NC(=O)[C@@H]3CSSC[C@@H](C(=O)N[C@H](C(=O)N4CCC[C@H]4C(=O)N[C@@H](CCCCN)C(=O)O)[C@@H](C)O)NC(=O)[C@H](Cc4c[nH]cn4)NC(=O)[C@H](CSSC[C@H](NC(=O)[C@H](CCCNC(=N)N)NC(=O)[C@H](CCCNC(=N)N)NC(=O)[C@H](CO)NC1=O)C(=O)N[C@@H](CC(C)C)C(=O)N[C@@H](CCC(=O)O)C(=O)N1CCC[C@H]1C(=O)N3)NC(=O)[C@H](CCCCN)NC(=O)CNC(=O)[C@H](CC(N)=O)NC(=O)[C@H](CCSC)NC2=O` [Q13R] (H-GVIINVKCKISRRCLEPCKKAGMRFGKCMNGKCHCTPK-OH; disulfide 8-28, 14-33, 18-35): 9.76 and 9.80.
`CC[C@H](C)[C@@H]1NC(=O)[C@H](CCCCN)NC(=O)[C@@H](NC(=O)[C@H](CCCCN)NC(=O)[C@@H](NC(=O)[C@H](Cc2cccc3ccccc23)NC(=O)[C@@H](NC(=O)[C@@H](NC(=O)[C@@H](NC(=O)CN)C(C)C)[C@@H](C)CC)[C@@H](C)CC)C(C)C)CSSC[C@@H]2NC(=O)[C@H](CCCCN)NC(=O)CNC(=O)[C@H](Cc3ccccc3)NC(=O)[C@H](CCCNC(=N)N)NC(=O)[C@H](CCSC)NC(=O)CNC(=O)[C@H](C)NC(=O)[C@H](CCCCN)NC(=O)[C@H](CCCCN)NC(=O)[C@@H]3CSSC[C@@H](C(=O)N[C@H](C(=O)N4CCC[C@H]4C(=O)N[C@@H](CCCCN)C(=O)O)[C@@H](C)O)NC(=O)[C@H](Cc4c[nH]cn4)NC(=O)[C@H](CSSC[C@H](NC(=O)[C@H](CCC(N)=O)NC(=O)[C@H](CCCNC(=N)N)NC(=O)[C@H](CO)NC1=O)C(=O)N[C@@H](CC(C)C)C(=O)N[C@@H](CCC(=O)O)C(=O)N1CCC[C@H]1C(=O)N3)NC(=O)[C@H](CCCCN)NC(=O)CNC(=O)[C@H](CC(N)=O)NC(=O)[C@H](CCSC)NC2=O` [N5Nal] (H-GVII[1Nal]VKCKISRQCLEPCKKAGMRFGKCMNGKCHCTPK-OH; disulfide 8-28, 14-33, 18-35): the results for the pIC50 in test [1] (setting [3]) and in test [2] (setting [4]) were 9.37 and 9.12, respectively.
As to `CC[C@H](C)[C@@H]1NC(=O)[C@H](CCCCN)NC(=O)[C@@H](NC(=O)[C@H](CCCCN)NC(=O)[C@@H](NC(=O)[C@H](CC(N)=O)NC(=O)[C@@H](NC(=O)[C@@H](NC(=O)[C@@H](NC(=O)CN)C(C)C)[C@@H](C)CC)[C@@H](C)CC)C(C)C)CSSC[C@@H]2NC(=O)[C@H](CCCCN)NC(=O)CNC(=O)[C@H](Cc3ccccc3)NC(=O)[C@H](CCCNC(=N)N)NC(=O)[C@H](CCSC)NC(=O)CNC(=O)[C@H](C)NC(=O)[C@H](CCCCN)NC(=O)[C@H](CCCCN)NC(=O)[C@@H]3CSSC[C@@H](C(=O)N[C@H](C(=O)N4CCC[C@H]4C(=O)N[C@@H](CCCCN)C(=O)O)[C@@H](C)O)NC(=O)[C@H](Cc4c[nH]cn4)NC(=O)[C@H](CSSC[C@H](NC(=O)[C@H](CCC(N)=O)NC(=O)[C@H](CCCNC(=N)N)NC(=O)[C@H](CO)NC1=O)C(=O)N[C@@H](CC(C)C)C(=O)N[C@@H](C)C(=O)N1CCC[C@H]1C(=O)N3)NC(=O)[C@H](CCCCN)NC(=O)CNC(=O)[C@H](CC(N)=O)NC(=O)[C@H](CCSC)NC2=O` [E16A] (H-GVIINVKCKISRQCLAPCKKAGMRFGKCMNGKCHCTPK-OH; disulfide 8-28, 14-33, 18-35), the pIC50 in test [1] (setting [3]) and in test [2] (setting [4]) was 10.00 throughout.
Consider `CC[C@H](C)[C@@H]1NC(=O)[C@H](CCCCN)NC(=O)[C@@H](NC(=O)[C@H](CCCCN)NC(=O)[C@@H](NC(=O)[C@H](CC(N)=O)NC(=O)[C@@H](NC(=O)[C@@H](NC(=O)[C@@H](NC(=O)CN)C(C)C)[C@@H](C)CC)[C@@H](C)CC)C(C)C)CSSC[C@@H]2NC(=O)[C@H](CCCCN)NC(=O)CNC(=O)[C@H](Cc3ccccc3)NC(=O)[C@H](CCCNC(=N)N)NC(=O)[C@H](CCSC)NC(=O)CNC(=O)[C@H](C)NC(=O)[C@H](CCCCN)NC(=O)[C@H](CCCCN)NC(=O)[C@@H]3CSSC[C@@H](C(=O)N[C@H](C(=O)N4CCC[C@H]4C(=O)N[C@@H](CCCCN)C(=O)O)[C@@H](C)O)NC(=O)[C@H](Cc4c[nH]cn4)NC(=O)[C@H](CSSC[C@H](NC(=O)[C@H](CCC(N)=O)NC(=O)[C@H](CCCNC(=N)N)NC(=O)[C@H](CO)NC1=O)C(=O)N[C@@H](CCCNC(=N)N)C(=O)N[C@@H](CCC(=O)O)C(=O)N1CCC[C@H]1C(=O)N3)NC(=O)[C@H](CCCCN)NC(=O)CNC(=O)[C@H](CC(N)=O)NC(=O)[C@H](CCSC)NC2=O` [L15R] (H-GVIINVKCKISRQCREPCKKAGMRFGKCMNGKCHCTPK-OH; disulfide 8-28, 14-33, 18-35), for which the pIC50 in test [1] (setting [3]) was 9.94; in test [2] (setting [4]), 10.03.
The matching figures for `CC[C@H](C)[C@@H]1NC(=O)[C@H](CCCCN)NC(=O)[C@@H](NC(=O)[C@H](CCCCN)NC(=O)[C@H](CCC(=O)O)NC(=O)[C@H](CC(N)=O)NC(=O)[C@@H](NC(=O)[C@@H](NC(=O)[C@@H](NC(=O)CN)C(C)C)[C@@H](C)CC)[C@@H](C)CC)CSSC[C@@H]2NC(=O)[C@H](CCCCN)NC(=O)CNC(=O)[C@H](Cc3ccccc3)NC(=O)[C@H](CCCNC(=N)N)NC(=O)[C@H](CCSC)NC(=O)CNC(=O)[C@H](C)NC(=O)[C@H](CCCCN)NC(=O)[C@H](CCCCN)NC(=O)[C@@H]3CSSC[C@@H](C(=O)N[C@H](C(=O)N4CCC[C@H]4C(=O)N[C@@H](CCCCN)C(=O)O)[C@@H](C)O)NC(=O)[C@H](Cc4c[nH]cn4)NC(=O)[C@H](CSSC[C@H](NC(=O)[C@H](CCC(N)=O)NC(=O)[C@H](CCCNC(=N)N)NC(=O)[C@H](CO)NC1=O)C(=O)N[C@@H](CC(C)C)C(=O)N[C@@H](CCC(=O)O)C(=O)N1CCC[C@H]1C(=O)N3)NC(=O)[C@H](CCCCN)NC(=O)CNC(=O)[C@H](CC(N)=O)NC(=O)[C@H](CCSC)NC2=O` [V6E] (H-GVIINEKCKISRQCLEPCKKAGMRFGKCMNGKCHCTPK-OH; disulfide 8-28, 14-33, 18-35): 10.17 and 10.32.
“GVIIAVKCKISRQCLEPCKKAGMRFGKCMNGKCHCTPK [Ala-5 (SEQ ID No: 1404)]”: the pIC50 in test [1] (read-out: Average IC50 IFNg) and in test [2] (read-out: Average IC50 IL-2) was 10.17 each time.
